The values below are quoted from earlier work in patent US20240301505A1, “URINARY TRACT CANCER TREATMENT GUIDED BY MUTATIONAL LANDSCAPE” (BROWN UNIVERSITY, priority 2021, published 2024).

Each structure is given as a SMILES string.

The target in one data set is T1, CHK1 (Homo sapiens, UniProt O14757).
T1 sequence (O14757 1-476): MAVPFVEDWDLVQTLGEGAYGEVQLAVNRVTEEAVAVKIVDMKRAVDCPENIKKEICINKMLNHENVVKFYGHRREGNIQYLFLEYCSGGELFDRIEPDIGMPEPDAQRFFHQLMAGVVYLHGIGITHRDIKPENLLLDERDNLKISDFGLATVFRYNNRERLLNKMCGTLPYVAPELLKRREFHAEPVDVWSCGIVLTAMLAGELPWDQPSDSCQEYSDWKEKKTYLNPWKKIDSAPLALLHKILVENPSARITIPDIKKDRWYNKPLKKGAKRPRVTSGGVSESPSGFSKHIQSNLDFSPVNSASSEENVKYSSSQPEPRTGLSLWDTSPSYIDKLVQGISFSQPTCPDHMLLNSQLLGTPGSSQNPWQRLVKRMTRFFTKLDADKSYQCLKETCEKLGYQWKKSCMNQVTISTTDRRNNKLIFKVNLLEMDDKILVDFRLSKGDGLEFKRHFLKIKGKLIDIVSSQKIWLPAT
Particulars: in combination with gemcitabine and irinotecan.

Data set [1] deals with Bladder tumors with ARID1A deficiencies.
Data set [2] concerns advanced breast cancer with mutations in PIK3CA, AKT1 or PTEN and/or PTEN loss. Particulars: monotherapy, patients with advanced breast cancer with mutations in PIK3CA.
In data set [3] the test system is p21 and p53 protein expression. Particulars: accompanied by an increase in DNA damage and intracellular hydroxyl radicals.
The target in another data set is CHK2 (Homo sapiens, UniProt O96017). Particulars: in combination with topotecan or camptothecin.
For the next data set, the system named is p21 protein expression. Particulars: upon treatment.

Chain of CHK2 (O96017 whole entry): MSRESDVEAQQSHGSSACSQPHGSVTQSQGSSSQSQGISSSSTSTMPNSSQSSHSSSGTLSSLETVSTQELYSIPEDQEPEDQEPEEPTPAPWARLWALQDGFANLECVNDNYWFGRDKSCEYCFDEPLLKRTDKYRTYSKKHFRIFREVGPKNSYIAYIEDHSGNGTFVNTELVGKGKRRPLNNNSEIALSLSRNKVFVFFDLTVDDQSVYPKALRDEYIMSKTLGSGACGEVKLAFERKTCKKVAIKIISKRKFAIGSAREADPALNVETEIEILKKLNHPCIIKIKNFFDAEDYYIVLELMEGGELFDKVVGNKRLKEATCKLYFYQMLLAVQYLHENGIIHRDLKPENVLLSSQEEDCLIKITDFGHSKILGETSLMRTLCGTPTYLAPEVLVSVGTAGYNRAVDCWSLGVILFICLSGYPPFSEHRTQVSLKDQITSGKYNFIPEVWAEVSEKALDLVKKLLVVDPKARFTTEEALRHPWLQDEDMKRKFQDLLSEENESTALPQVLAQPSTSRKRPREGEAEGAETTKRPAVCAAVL

For the molecule `COc1cc(Nc2cnc(C#N)c(O[C@H](C)CN(C)C)n2)ncc1-c1cnn(C)c1` [CCT244747], at CHK1, the anti-tumor activity entry was “showed anti-tumor activity”.
Take `CC[C@H](C)n1cc(C)c2c(C(=O)NCc3c(C)cc(C)[nH]c3=O)cc(-c3ccc(N4CCNCC4)nc3)cc21` [GSK-126]: in data set [1], the sensitivity of tumors result is “sensitive”.
Turning to `NC1(c2ccc(-c3nc4ccn5c(=O)[nH]nc5c4cc3-c3ccccc3)cc2)CCC1` [MK-2206], the clinical activity result in data set [2] is on record as “limited clinical activity”.
On to `Nc1ccc(-c2ccccc2)cc1` [4-ABP, 4-Aminobiphenyl], for which the “mutations induced occurring at G:C base pairs” value in the data set with G:C base pairs is reported as 82.9%.
On to `C[As](C)(O)=S` [dimethylmonothioarsinic acid], for which the “p21 and p53 protein expression” value in data set [3] is “decrease in both p21 and p53 protein expression”.
As to `C/C(=N\N=C(N)N)c1ccc(NC(=O)c2cc3cccc([N+](=O)[O-])c3[nH]2)cc1` [PV1019], the activity in combination result at CHK2 is “showed enhanced activity”.
For the molecule `Nc1ccc(-c2ccc(N)cc2)cc1` [benzidine], in the data set on p21, the “p21 mRNA levels” value is listed as “downregulate p21 mRNA levels” and the p21 protein levels result is on record as “decrease p21 protein levels”.
As for `CCCCN(CCCCO)N=O` [N-butyl-N-(4-hydroxybutyl)nitrosamine], the p21 protein expression entry in the data set with p21 protein expression is given as “decrease in p21 protein expression”.
